Reference: article PMC9613470, “Diverse MarR bacterial regulators of auxin catabolism in the plant microbiome” (Nature Microbiology, 2022)
Read-outs that look alike come from different tables or passages of the source.

How the values were obtained:
[1] = target: Ruegaria pomeroyi MarR_3CDH (Ruegeria pomeroyi, UniProt Q5LTG1); test: ITC IAA binding to MarR_3CDH; details: 25 °C, IadR (MarR_73-like)
Protocol: (§1) The coding sequence for each gene can be found in Supplementary Table 10. MarR expression plasmids were synthesized as codon-optimized genes for E. coli expression by BioBasic in the pLIC-His N-term vector (pMCSG7) and transformed into E. coli BL21 (DE3) Gold cells for expression. […] At an OD600 of 0.8, protein expression was induced by the addition of 0.1 mM IPTG and incubation continued overnight. Cells were collected by centrifugation at 4,500 × g for 20 min at 4 °C in a Sorvall (model RC-3B) swinging bucket centrifuge. Cell pellets were resuspended in buffer A (20 mM potassium phosphate, pH 7.4, 50 mM imidazole, 500 mM NaCl), DNase, lysozyme and a Roche Complete EDTA-free protease inhibitor tablet. Resuspended cells were sonicated and clarified via centrifugation at 17,000 × g for 60 min in a Sorvall (model RC-5B) swinging bucket centrifuge. The lysate was applied to a nickel-nitrilotriacetic acid HP column (GE Healthcare) on an Aktaxpress Fast Performance Liquid Chromatography (FPLC) system (Amersham Bioscience) and washed with buffer A. Protein was eluted with buffer B (20 mM potassium phosphate, pH 7.4, 500 mM imidazole, 500 mM NaCl). Fractions containing the protein of interest were combined and passed over a HiLoadTM 16/60 SuperdexTM 200 gel filtration column. Proteins were eluted in S200 buffer (20 mM HEPES, pH 7.4, 300 mM NaCl). Fractions were combined and concentrated for long-term storage at −80 °C.
(§2) All ITC measurements were performed at 25 °C using an Auto-ITC200 microcalorimeter (MicroCal/GE Healthcare). The buffer employed was 20 mM HEPES, pH 7.4, 50 mM NaCl and 0.5% dimethly sulfoxide (DMSO) for protein/ligand binding and 20 mM HEPES, pH 7.4 and 300 mM NaCl for DNA/protein binding experiments. For ligand binding experiments, the calorimetry cell (volume […]) was loaded with MarR wild-type, mutant or homologue protein at a concentration of 50 μM. The syringe was loaded with a ligand concentration of 0.5 or 2 mM. […] A typical injection protocol included a single 0.2 μl first injection followed by 20 1.5 μl injections of the syringe sample into the calorimetry cell. The spacing between injections was kept at 180 s and the reference power at 8 μcal s^−1. […] Two independent ITC measurements were performed for each condition.

MarR_73 S28A = MarR_73 S28A (Variovorax paradoxus, UniProt C5CSP2, S28A); test: biochemical
Sequence of MarR_73 S28A (C5CSP2 1-158, stated change not applied): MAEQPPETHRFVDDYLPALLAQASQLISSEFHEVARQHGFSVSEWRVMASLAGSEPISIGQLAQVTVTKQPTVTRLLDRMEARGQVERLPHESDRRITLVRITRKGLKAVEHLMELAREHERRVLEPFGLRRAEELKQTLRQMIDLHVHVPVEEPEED
Protocol: as §1
MarR mutant proteins were created by site-directed mutagenesis using primers from Integrated DNA Technologies. […] The mutants were produced and purified using E. coli BL21 (DE3) Gold as described above.
as §2

Sequence of Ruegaria pomeroyi MarR_3CDH (Q5LTG1 entry or part of it): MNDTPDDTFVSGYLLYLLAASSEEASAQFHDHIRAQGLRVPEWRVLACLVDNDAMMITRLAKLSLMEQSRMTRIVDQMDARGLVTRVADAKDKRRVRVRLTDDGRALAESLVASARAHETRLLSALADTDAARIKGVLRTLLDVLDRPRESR

## O=C(O)Cc1c[nH]c2ccccc12 [IAA, indole-3-acetic acid]
[1]; first site
  N1: 0.411 ± 0.012
[1]; first site, read-out: KD1
  Kd: 237 ± 99 nM
[1]; second site
  N2: 0.216 ± 0.011
[1]; second site, read-out: KD2
  Kd: 6 nM
MarR_73 S28A
  Kd: 2400 ± 100 nM
MarR_73 S28A; ITC, 25 °C, mutant S28A
  N: 0.52 ± 0.01
